Measured values from patent publication US9926354B2, “Amyloid precursor protein (APP) based Ã#-secretase inhibitor peptides, and methods of use” (UNIVERSITY OF SOUTH FLORIDA, priority 2014, dated 2018).

Key:
[1] = test system: CHO cells over-expressing human Swedish mutant APP (CHO/APPswe); assay: Aβ and sAPPα production in cultured media of CHO/APPswe cells by ELISA; type: cell-based, Chinese hamster; settings: 20 μg/mL, 24 hours
Experimental: (§1) Cell Culture—Chinese hamster ovary (CHO) cells engineered to express wild-type human APP (CHO/APPwt cells) or Swedish mutant human APP (CHO/APPswe cells) were kindly provided by Dr. Stefanie Hahn and Dr. Sascha Weggen (University of Heinrich Heine, Dusseldorf, Germany). As described previously (Obregon et al., 2012), these cells were cultured in Dulbecco's modified Eagle's medium (DMEM) with 10% fetal bovine serum (FBS), 1 mM sodium pyruvate, and 100 units/mL of penicillin and streptomycin.
(§2) To confirm the binding of APPsweBBP with BACE1, CHO/APPwt cells were plated in 8-well chambers (5×10^5/well), incubated with TAT-APPsweBBP-biotin or APPsweBBP-biotin at 20 μM for 30 minutes, fixed with 4% paraformaldehyde for 20 minutes, washed and permeabilized with 0.5% Triton X-100. Following application of blocking buffer, these cells were stained with mouse anti-BACE1 and rabbit anti-biotin antibodies overnight at 4° C. for immunocytochemistry analysis. In order to determine the inhibitory effects of TAT-APPsweBBP on BACE1-mediated APP β-cleavage and subsequent Aβ production, both CHO/APPwt and CHO/APPswe cells were plated in 24 well-plates (3×10^5/well) and treated with TAT-APPsweBBP at 0-20 μM for 24 hours. The cultured media were collected for Aβ analysis by enzyme-linked immunosorbent assay (ELISA) and sAPPα analysis by ELISA and Western blot (WB). Cell lysates were also prepared for analysis of APP amyloidogenic processing by WB.
(§3) ELISA—Mouse brains were homogenized in ice-cold lysis buffer for 30 seconds using a Minilys tissue homogenizer (Bertin Technologies, Montigny-le-Bretonneux, France) set at high speed, allowed to stand for 15 minutes at 4° C., and centrifuged at 15,000 rpm for 30 minutes. Soluble Aβ1-40/42 species and sAPPα were directly detected in cultured cell media or brain homogenates using the Aβ1-40/42 (Invitrogen) and sAPPα ELISA kits (IBL-America, Minneapolis, Minn., USA).
(§4) To further examine the ability of the Swedish mutant APP BACE1 binding peptide/Tat fusion peptides to decrease Aβ production, CHO cells overexpressing either human wild-type APP (CHO/APPwt cells) or Swedish mutant APP (hereinafter referred to as “CHO/APPswe cells”) are treated with a variety of APP-based BACE1 inhibitor peptides, as shown in Table 1 and Table 2. Aβ production is determined using ELISA.

[2] = test system: CHO cells over-expressing human wild-type APP (CHO/APPwt); assay: Aβ and sAPPα production in cultured media of CHO/APPwt cells by ELISA (24 hours); type: cell-based, Chinese hamster; settings: 20 μg/mL
Experimental: as §1
as §2, with “In order to determine the inhibitory effects of TAT-APPsweBBP on BACE1-mediated APP β-cleavage and subsequent Aβ production, both CHO/APPwt and CHO/APPswe cells were plated in 24 well-plates (3×10^5/well) and treated with TAT-APPsweBBP at 0-20 μM for 24 hours.” left out
as §3, §4

Sequence: YGRKKRRQRRR [TAT, reference compound]
- Secreted Aβ40 (ng/mg; mean ± SD) [1]: 66.71 ± 12.02 ng/mg
- Secreted Aβ42 (ng/mg; mean ± SD) [1]: 10.76 ± 2.12 ng/mg
- Secreted sAPPα (ng/mg; mean ± SD) [1]: 196.98 ± 17.77 ng/mg
- Secreted Aβ40 (ng/mg; mean ± SD) [2]: 11.32 ± 0.45 ng/mg
- Secreted Aβ42 (ng/mg; mean ± SD) [2]: 1.07 ± 0.057 ng/mg
- Secreted sAPPα (ng/mg; mean ± SD) [2]: 4766.34 ± 198.34 ng/mg
